Results on 7 molecules are retold here after ChEMBL document CHEMBL1201862, “PubChem BioAssay data set” (2004).

Structures are written as SMILES.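 The compound was tested at five concentrations on cells cultured in 96-well plates, with a 48-hour exposure period. GI50 = concentration required for 50% inhibition of growth.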 Activity calls are given as the source filed them. Rule as the data show it: active = GI50 up to about 1.1 µM and inactive = higher.

What all share (assay): NCI tumour cell line growth inhibition, 48 h
The test system of assay [1] is CCRF-CEM.
Assay [2] relates to HCT-116.
Assay [3] has as its system HCT-15.
Assay [4] deals with HL-60.
The subject of assay [5] is HOP-62.
For assay [6], the system named is HOP-92.
The test system of assay [7] is IGROV-1.
Assay [8] relates to KM12.
Assay [9] has as its system MOLT-4.
For assay [10], the system named is NCI-H23.
Assay [11] concerns OVCAR-3.
For assay [12], the system named is OVCAR-4.
Assay [13] deals with RPMI-8226.
Assay [14] relates to RXF 393.
Assay [15] has as its system SF-539.
The subject of assay [16] is SK-MEL-5.
Assay [17] has as its system SK-OV-3.
The subject of assay [18] is SN12C.
Assay [19] has as its system U-251.
Assay [20] concerns UO-31.

On to `O=C1ON(Cc2ccccc2)C(c2ccccc2)N1c1ccccc1` (stereo not given), for which the GI50 in assay [1] is > 100 µM (inactive); in [2] it was > 100 µM (inactive); in assay [3], > 100 µM; in [4], > 70.5 µM (inactive); in [5], > 100 µM (inactive); in assay [6], > 100 µM (inactive). Also, the GI50 in assay [7] is > 100 µM (inactive); in [8], > 100 µM (inactive); in assay [9] it was 71.6 µM (inactive); in assay [10], > 100 µM (inactive); in [11], > 100 µM (inactive); in assay [12], > 100 µM (inactive). Further, the GI50 in assay [13], in assay [14], in assay [15], in assay [16], in assay [17] and in assay [18] was > 100 µM (inactive) each time. In addition, the GI50 in assay [19] and in assay [20] was > 100 µM (inactive) in each case.

Turning to `O=NN1C(c2ccccc2)CCCC1c1ccccc1` (stereo not given), the GI50 in [1] was 52.1 µM (inactive); in assay [2], 47.9 µM (inactive); in [3], 62.4 µM; in assay [4] it was 26.8 µM (inactive); in assay [5], > 100 µM (inactive); in assay [6] it was 36.4 µM (inactive). Moreover, the GI50 in assay [7] is > 89.7 µM (inactive); in [8], > 89.9 µM (inactive); in [9] it was 27.9 µM (inactive); in assay [10], 42 µM (inactive); in [11], > 41.8 µM (inactive); in assay [12] it was 35.9 µM (inactive). The GI50 in [13] was 21.7 µM (inactive); in assay [14], 44.5 µM (inactive); in [15], > 100 µM (inactive); in [16], 49.4 µM (inactive); in assay [17], 31.9 µM (inactive); in assay [18], > 100 µM (inactive). The results for the GI50 in [19] and in assay [20] were 75.5 µM (inactive) and 42.4 µM (inactive), respectively.

Consider `CC(OC(C)(C)C)[C@H](NC(=O)OCC(Cl)(Cl)Cl)C(=O)O` (stereo not given in full), for which the GI50 was > 100 µM (inactive) in assay [1]; > 100 µM (inactive) in assay [2]; > 100 µM in assay [3]; > 100 µM (inactive) in assay [4]; > 100 µM (inactive) in [5]; > 100 µM (inactive) in assay [6]. Besides, the GI50 in [7], in assay [8], in [9], in assay [10], in assay [11] and in assay [12] was > 100 µM (inactive) each time. Further, the GI50 in assay [13] is > 100 µM (inactive); in [14] it was 87.9 µM (inactive); in [15], > 100 µM (inactive); in assay [16], > 100 µM (inactive); in assay [17] it was > 100 µM (inactive); in [18] it was > 100 µM (inactive). For the same molecule, the GI50 in assay [19] and in assay [20] was > 100 µM (inactive) in each case.

Consider `Clc1cc2c(c(CSC3=NCN(CC4CC4)CN3)c1)OCOC2`, for which the GI50 in assay [1] was 5.35 µM (inactive); in [2], 18.5 µM (inactive); in [3], 21.5 µM; in assay [4] it was 13.6 µM (inactive); in [5] it was 21.9 µM (inactive); in [6], 37.6 µM (inactive). In addition, the GI50 was 35.9 µM (inactive) in assay [7]; 30.8 µM (inactive) in assay [8]; 22.5 µM (inactive) in assay [9]; 17.1 µM (inactive) in assay [10]; 23.4 µM (inactive) in assay [11]; 34.3 µM (inactive) in assay [12]. Also, the GI50 was 12.1 µM (inactive) in assay [13]; 17.3 µM (inactive) in assay [14]; 20.3 µM (inactive) in assay [15]; 17.7 µM (inactive) in [16]; 24.6 µM (inactive) in [17]; 28.6 µM (inactive) in assay [18]. The GI50 is 19.6 µM (inactive) in [19] and 12.7 µM (inactive) in assay [20].

Take `COC(=O)c1ccc(/N=N/N(C)COc2ccc([N+](=O)[O-])cc2)cc1`: the GI50 in assay [1] was 58.2 µM (inactive); in assay [2], > 100 µM (inactive); in assay [3] it was > 90.8 µM; in assay [4] it was 21.8 µM (inactive); in [5], > 100 µM (inactive); in assay [6], 65.3 µM (inactive). Further, the GI50 is > 100 µM (inactive) in assay [7]; 81.8 µM (inactive) in assay [8]; > 100 µM (inactive) in assay [9]; > 100 µM (inactive) in assay [10]; > 100 µM (inactive) in [11]; > 100 µM (inactive) in [12]. Further, the GI50 is 38.7 µM (inactive) in assay [13]; > 85.3 µM (inactive) in assay [14]; 88.7 µM (inactive) in assay [15]; > 96.8 µM (inactive) in [16]; > 100 µM (inactive) in assay [17]; > 100 µM (inactive) in [18]. For the same molecule, the GI50 in assay [19] and in assay [20] was > 100 µM (inactive) throughout.

`O=S(=O)(O)c1ccc(/N=N\c2ccc(/N=N/c3ccc(/C=C/c4ccc(/N=[N+](\[O-])c5ccc(/C=C/c6ccc(/N=N/c7ccc(/N=N/c8ccc(S(=O)(=O)O)cc8)c8ccccc78)cc6S(=O)(=O)O)c(S(=O)(=O)O)c5)cc4S(=O)(=O)O)c(S(=O)(=O)O)c3)c3ccccc23)cc1`: the GI50 in assay [1] was > 100 µM (inactive); in [2] it was > 100 µM (inactive); in [3] it was > 100 µM; in assay [4] it was > 100 µM (inactive); in assay [5] it was > 100 µM (inactive); in assay [6], > 81.1 µM (inactive). For the same molecule, the GI50 is 32.3 µM (inactive) in [7]; > 100 µM (inactive) in assay [8]; > 100 µM (inactive) in assay [9]; > 100 µM (inactive) in [10]; 99.1 µM (inactive) in assay [11]; > 100 µM (inactive) in assay [12]. Moreover, the GI50 in [13] was > 100 µM (inactive); in assay [14] it was > 100 µM (inactive); in assay [15] it was > 84.7 µM (inactive); in assay [16] it was > 100 µM (inactive); in assay [17], > 100 µM (inactive); in [18], > 100 µM (inactive). The GI50 was > 91.4 µM (inactive) in assay [19] and 57.4 µM (inactive) in assay [20].

In the case of `C[C@]12CCC(=O)C(O)=C1CC[C@@H]1[C@@H]2CC[C@]2(C)C(=O)CC[C@@H]12` [FORMESTANE], the GI50 was > 100 µM (inactive) in [1]; > 93.1 µM (inactive) in assay [2]; > 100 µM in assay [3]; > 80.9 µM (inactive) in assay [4]; > 100 µM (inactive) in assay [5]; > 81.8 µM (inactive) in assay [6]. Also, the GI50 in [7] was > 100 µM (inactive); in assay [8], > 74.3 µM (inactive); in assay [9] it was > 75.9 µM (inactive); in assay [10] it was > 100 µM (inactive); in assay [11] it was > 100 µM (inactive); in [12], > 100 µM (inactive). Besides, the GI50 in assay [13] was > 100 µM (inactive); in [14], > 100 µM (inactive); in assay [15], > 100 µM (inactive); in [16], > 93.5 µM (inactive); in [17] it was > 100 µM (inactive); in [18] it was > 100 µM (inactive). Besides, the GI50 in assay [19] is > 100 µM (inactive); in [20], > 90.2 µM (inactive).
